Biological target: human Edg-2 receptor (Homo sapiens, UniProt Q92633)
Assay: Determination of Edg-2 receptor inhibition by FLIPR measurements (LPA-mediated calcium liberation)
Assay type: cell-based
Conditions: CHO cells overexpressing human Edg-2 receptor, LPA 100 nM, fluo-4 calcium fluorescence; read-out: Inhibitory concentrations IC50 for inhibition of the Edg-2 receptor
Protocol: A) Determination of Edg-2 Receptor Inhibition by Fluorescence Imaging Plate Reader (FLIPR) Measurements
The inhibition of the Edg-2 receptor (LPA1 receptor) by the compounds of the invention was quantified by the inhibitory effect on the LPA-mediated calcium liberation in a cell-based calcium fluorescence assay by use of Chinese hamster ovarian (CHO) cells in which the human Edg-2 receptor was stably overexpressed (Flp-In system, Invitrogen). […] Changes in intracellular calcium were determined by fluorescence measurement with the calcium-sensitive dye fluo-4 (Invitrogen) in a fluorescence imaging plate reader (FLIPR, […]).
CHO cells stably overexpressing the human Edg-2 receptor were seeded (40.000 per well) in black clear-bottomed poly-D-lysine-coated 96 well plates (Becton Dickinson, Biocoat cellware) approximately 18-24 h prior to the experiments. Cells were grown in an incubator at 37° C., 5% carbon dioxide and 95% humidity in cell culture media based on F-12 glutamax media (Gibco, #31765) supplemented with 1% (vol/vol) penicilline/streptomycine (PAN, #P06-07100), 10% (vol/vol) fetal calf serum (FCS, PAA, #A15-151) and hygromycin B (Invitrogen, #10687-010) 300 mg/l (final concentrations).
Prior to the FLIPR experiment, cells were loaded with fluo-4 acetoxymethyl ester (fluo-4 AM, Invitrogen, #F14202) for 60 min in an incubator at 37° C., 5% carbon dioxide and 95% humidity in dye-loading buffer consisting of Hanks' Balanced Salt Solution (HBSS, Invitrogen, #14065049) supplemented with fluo-4 AM at 2 μM (all data given for final concentration), Pluronic® F-127 0.05% (vol/vol) (Invitrogen, #P-3000 MP), HEPES 20 mM (Gibco, #15630), probenecid 2.5 mM (Sigma, #P-8761) and bovine serum albumin 0.05% (BSA, Sigma, #A-6003), adjusted to pH 7.5 with sodium hydroxide. During cell loading, fluo-4 AM is cleaved by intracellular esterase resulting in trapping of the dye fluo-4 within the cells. Loading was terminated by washing of the cells in a cell washer (Tecan Power washer) three times with the buffer specified afore but without fluo-4 AM and BSA. This latter buffer was also used as the buffer in the subsequent cell fluorescence measurements.
The dye-loaded and washed cells were pre-incubated for approximately 5 min with various concentrations of the test compound added as a solution in DMSO (0.3% vol/vol maximum final concentration of DMSO), or with DMSO in the respective concentration only (positive control). Subsequent addition of LPA (18:1, 1-oleoyl-sn-glycerol 3-phosphate; 100 nM final concentration) leads to liberation of intracellular calcium from internal stores resulting in a large transient increase of the fluo-4 fluorescence signal which was monitored over approximately 3 min. The percent inhibition caused by the test compound was determined from the maximum fluorescence response after LPA addition to cells pre-incubated with the compound as compared to the maximum fluorescence response after LPA addition to cells pre-incubated with DMSO only. All fluorescence values were corrected for the baseline fluorescence values obtained with cells which were pre-incubated with DMSO only and were not treated with LPA (baseline control). All measurements were performed in triplicate. From the percent inhibitions the inhibitory concentration IC50 was determined.

Chain of human Edg-2 receptor (Q92633 whole entry): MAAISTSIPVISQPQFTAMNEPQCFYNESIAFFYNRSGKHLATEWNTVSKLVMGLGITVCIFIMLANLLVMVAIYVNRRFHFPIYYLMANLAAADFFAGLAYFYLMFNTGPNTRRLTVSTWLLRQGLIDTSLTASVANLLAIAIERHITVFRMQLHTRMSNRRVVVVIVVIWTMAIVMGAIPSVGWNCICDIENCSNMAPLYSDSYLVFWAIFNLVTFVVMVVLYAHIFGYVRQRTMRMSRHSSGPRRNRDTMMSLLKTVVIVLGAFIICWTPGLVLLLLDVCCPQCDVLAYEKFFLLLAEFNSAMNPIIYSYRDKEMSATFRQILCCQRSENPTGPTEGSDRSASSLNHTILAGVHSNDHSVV

Row | SMILES | IC50 [µM]
1 | COc1ccc(C(=O)NC2(C(=O)O)CCCC(=O)CC2)cc1OCCc1cccc(C)c1 (stereo not shown) [Example 52, 1-[4-Methoxy-3-(2-m-tolyl-ethoxy)-benzoylamino]-4-oxo-cycloheptanecarboxylic acid] | 1 to 30
2 | COc1ccc(C(=O)NC2(C(=O)O)CCCC(O)CC2)cc1OCCc1cccc(C)c1 (stereo not shown) [Example 53, 4-Hydroxy-1-[4-methoxy-3-(2-m-tolyl-ethoxy)-benzoylamino]-cycloheptanecarboxylic acid] | 0.1 to 1
3 | COc1ccc(C(=O)NC2(C(=O)O)CCC3(CC2)OCCO3)cc1OCCc1cccc(C)c1 [Example 54, 8-[4-Methoxy-3-(2-m-tolyl-ethoxy)-benzoylamino]-1,4-dioxa-spiro[4.5]decane-8-carboxylic acid] | < 0.1
4 | COc1ccc(C(=O)NC2(C(=O)O)CCC(=O)CC2)cc1OCCc1cccc(C)c1 [Example 55, 1-[4-Methoxy-3-(2-m-tolyl-ethoxy)-benzoylamino]-4-oxo-cyclohexanecarboxylic acid] | 0.1 to 1
5 | C=C1CCC(NC(=O)c2ccc(OC)c(OCCc3cccc(C)c3)c2)(C(=O)O)CC1 [Example 56, 1-[4-Methoxy-3-(2-m-tolyl-ethoxy)-benzoylamino]-4-methylene-cyclohexanecarboxylic acid] | < 0.1
6 | COc1ccc(C(=O)NC2(C(=O)O)CCC3(CC3)CC2)cc1OCCc1cccc(C)c1 [Example 57, 6-[4-Methoxy-3-(2-m-tolyl-ethoxy)-benzoylamino]-spiro[2.5]octane-6-carboxylic acid] | < 0.1
7 | COc1ccc(C(=O)NC2(C(=O)O)CCC(CO)CC2)cc1OCCc1cccc(C)c1 (stereo not shown) [Example 58, 4-Hydroxymethyl-1-[4-methoxy-3-(2-m-tolyl-ethoxy)-benzoylamino]-cyclohexanecarboxylic acid] | 1 to 30
8 | COc1ccc(C(=O)NC2(C(=O)O)CCC(CF)CC2)cc1OCCc1cccc(C)c1 (stereo not shown) [Example 59, 4-Fluoromethyl-1-[4-methoxy-3-(2-m-tolyl-ethoxy)-benzoylamino]-cyclohexanecarboxylic acid] | < 0.1
9 | CC(=O)c1ccc(C(=O)NC2(C(=O)O)CCCCCC2)cc1OCCc1cccc(C)c1 [Example 60, 1-[4-Acetyl-3-(2-m-tolyl-ethoxy)-benzoylamino]-cycloheptanecarboxylic acid] | 0.1 to 1

The remaining lines, values ahead:

Row | IC50 [µM] | SMILES
10 | 0.1 to 1 | Cc1cccc(CCOc2cc(C(=O)NC3(C(=O)O)CCCCCC3)ccc2C(C)O)c1 (stereo not shown) [Example 61, 1-[4-(1-Hydroxy-ethyl)-3-(2-m-tolyl-ethoxy)-benzoylamino]-cycloheptanecarboxylic acid]
11 | < 0.1 | CCc1ccc(C(=O)NC2(C(=O)O)CCCCCC2)cc1OCCc1cccc(C)c1 [Example 62, 1-[4-Ethyl-3-(2-m-tolyl-ethoxy)-benzoylamino]-cycloheptanecarboxylic acid]
12 | < 0.1 | Cc1cccc(CCOc2cc(C(=O)NC3(C(=O)O)CCCCCC3)ccc2C(C)F)c1 (stereo not shown) [Example 63, 1-[4-(1-Fluoro-ethyl)-3-(2-m-tolyl-ethoxy)-benzoylamino]-cycloheptanecarboxylic acid]
13 | 0.1 to 1 | Cc1cccc(CCOc2cc(C(=O)NC3(C(=O)O)CCCCCC3)ccc2Cl)c1 [Example 64, 1-[4-Chloro-3-(2-m-tolyl-ethoxy)-benzoylamino]-cycloheptanecarboxylic acid]
14 | < 0.1 | Cc1cccc(CCOc2cc(C(=O)NC3(C(=O)O)CCCCCC3)ccc2Br)c1 [Example 65, 1-[4-Bromo-3-(2-m-tolyl-ethoxy)-benzoylamino]-cycloheptanecarboxylic acid]
15 | < 0.1 | COc1ccc(C(=O)NC2(C(=O)O)CCCC2OC)cc1OCCc1cccc(C)c1 (stereo not shown) [Example 68, 2-Methoxy-1-[4-methoxy-3-(2-m-tolyl-ethoxy)-benzoylamino]-cyclopentanecarboxylic acid]
16 | 0.1 to 1 | COc1ccc(C(=O)NC2(C(=O)O)CCCCCC2)c(F)c1OCCc1cccc(C)c1 [Example 69, 1-[2-Fluoro-4-methoxy-3-(2-m-tolyl-ethoxy)-benzoylamino]-cycloheptanecarboxylic acid]

— patent publication US9018383B2, “Acylamino-substituted cyclic carboxylic acid derivatives and their use as pharmaceuticals” (Sanofi, priority 2009, dated 2015)
